Test results from PubChem BioAssay (NCI).
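Values below derive from 48-hour exposures of cells grown in 96-well plates, with endpoints linearly interpolated between the two concentrations bracketing the appropriate inhibition level. GI50 marks 50% less growth. TGI marks complete inhibition of growth.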

Columns and labels:
Assay in all cases: inhibition of tumour cell growth, NCI panel, 48 h
UACC-257 melanoma = test system: UACC-257 melanoma
CCRF-CEM leukemia = test system: CCRF-CEM leukemia
SW-620 colon = test system: SW-620 colon
OVCAR-3 ovarian = test system: OVCAR-3 ovarian
NCI-H460 lung = test system: NCI-H460 lung
MOLT-4 leukemia = test system: MOLT-4 leukemia
UACC-62 melanoma = test system: UACC-62 melanoma
A549 NSCLC = test system: A549 NSCLC
SF-268 CNS = test system: SF-268 CNS
NCI-H23 lung = test system: NCI-H23 lung
MDA-MB-435 = test system: MDA-MB-435
KM12 colon = test system: KM12 colon
SR leukemia = test system: SR leukemia
SF-295 CNS = test system: SF-295 CNS
U251 CNS = test system: U251 CNS
M14 melanoma = test system: M14 melanoma
OVCAR-8 ovarian = test system: OVCAR-8 ovarian
IGROV1 ovarian = test system: IGROV1 ovarian
COLO 205 colon = test system: COLO 205 colon
NCI-H522 lung = test system: NCI-H522 lung
HCC-2998 colon = test system: HCC-2998 colon
SNB-19 CNS = test system: SNB-19 CNS
UO-31 renal = test system: UO-31 renal
ACHN renal = test system: ACHN renal
CAKI-1 renal = test system: CAKI-1 renal
BT-549 breast = test system: BT-549 breast
HS 578T breast = test system: HS 578T breast
SK-MEL-28 melanoma = test system: SK-MEL-28 melanoma
K-562 leukemia = test system: K-562 leukemia
PC-3 prostate = test system: PC-3 prostate
HL-60(TB) leukemia = test system: HL-60(TB) leukemia
TK-10 renal = test system: TK-10 renal
HCT-15 colon = test system: HCT-15 colon
SN12C renal = test system: SN12C renal
A498 renal = test system: A498 renal
786-0 renal = test system: 786-0 renal
RXF 393 renal = test system: RXF 393 renal
NCI-H226 lung = test system: NCI-H226 lung
OVCAR-5 ovarian = test system: OVCAR-5 ovarian
DU-145 prostate = test system: DU-145 prostate
SK-OV-3 ovarian = test system: SK-OV-3 ovarian
HT29 colon = test system: HT29 colon
SF-539 CNS = test system: SF-539 CNS
T-47D breast = test system: T-47D breast
HOP-62 NSCLC = test system: HOP-62 NSCLC
NCI/ADR-RES ovarian = test system: NCI/ADR-RES ovarian
MDA-MB-231 breast = test system: MDA-MB-231 breast
SNB-75 CNS = test system: SNB-75 CNS
RPMI-8226 leukemia = test system: RPMI-8226 leukemia
MALME-3M melanoma = test system: MALME-3M melanoma
SK-MEL-2 melanoma = test system: SK-MEL-2 melanoma
SK-MEL-5 melanoma = test system: SK-MEL-5 melanoma

Structure (SMILES): Cc1cc(C)cc(NC2=C(Cl)C(=O)c3nc(C)ccc3C2=O)c1
- GI50 (UACC-257 melanoma): 1.64 µM
- TGI (UACC-257 melanoma): 3.12 µM
- GI50 (CCRF-CEM leukemia): 2.09 µM
- TGI (CCRF-CEM leukemia): 5.78 µM
- GI50 (SW-620 colon): 2.07 µM
- TGI (SW-620 colon): 4.65 µM
- GI50 (OVCAR-3 ovarian): 0.405 µM
- TGI (OVCAR-3 ovarian): 1.47 µM
- GI50 (NCI-H460 lung): 4.2 µM
- TGI (NCI-H460 lung): 20.1 µM
- GI50 (MOLT-4 leukemia): 1.6 µM
- TGI (MOLT-4 leukemia): 5.61 µM
- GI50 (UACC-62 melanoma): 2.63 µM
- TGI (UACC-62 melanoma): 7.42 µM
- GI50 (A549 NSCLC): 4.37 µM
- TGI (A549 NSCLC): 19.1 µM
- GI50 (SF-268 CNS): 3.74 µM
- TGI (SF-268 CNS): 20.7 µM
- GI50 (NCI-H23 lung): 1.7 µM
- TGI (NCI-H23 lung): 4.59 µM
- GI50 (MDA-MB-435): 1.96 µM
- TGI (MDA-MB-435): 3.86 µM
- GI50 (KM12 colon): 5.6 µM
- TGI (KM12 colon): 20.7 µM
- GI50 (SR leukemia): 1.22 µM
- TGI (SR leukemia): 3.96 µM
- GI50 (SF-295 CNS): 4.58 µM
- TGI (SF-295 CNS): 16.3 µM
- GI50 (U251 CNS): 2.35 µM
- TGI (U251 CNS): 8.09 µM
- GI50 (M14 melanoma): 1.63 µM
- TGI (M14 melanoma): 3.07 µM
- GI50 (OVCAR-8 ovarian): 2.14 µM
- TGI (OVCAR-8 ovarian): 5.92 µM
- GI50 (IGROV1 ovarian): 1.81 µM
- TGI (IGROV1 ovarian): 3.95 µM
- GI50 (COLO 205 colon): 2.23 µM
- TGI (COLO 205 colon): 5.01 µM
- GI50 (NCI-H522 lung): 2.05 µM
- TGI (NCI-H522 lung): 5.29 µM
- GI50 (HCC-2998 colon): 3.18 µM
- TGI (HCC-2998 colon): 10.5 µM
- GI50 (SNB-19 CNS): 3.41 µM
- TGI (SNB-19 CNS): 24.4 µM
- GI50 (UO-31 renal): 1.43 µM
- TGI (UO-31 renal): 2.87 µM
- GI50 (ACHN renal): 1.78 µM
- TGI (ACHN renal): 3.4 µM
- GI50 (CAKI-1 renal): 1.59 µM
- TGI (CAKI-1 renal): 3.18 µM
- GI50 (BT-549 breast): 1.41 µM
- TGI (BT-549 breast): 2.83 µM
- GI50 (HS 578T breast): 2.24 µM
- TGI (HS 578T breast): 5.81 µM
- GI50 (SK-MEL-28 melanoma): 1.99 µM
- TGI (SK-MEL-28 melanoma): 3.94 µM
- GI50 (K-562 leukemia): 0.712 µM
- TGI (K-562 leukemia): 4.81 µM
- GI50 (PC-3 prostate): 1.73 µM
- TGI (PC-3 prostate): 10.2 µM
- GI50 (HL-60(TB) leukemia): 1.55 µM
- TGI (HL-60(TB) leukemia): 3.85 µM
- GI50 (TK-10 renal): 2.21 µM
- TGI (TK-10 renal): 3.73 µM
- GI50 (HCT-15 colon): 1.09 µM
- TGI (HCT-15 colon): 2.64 µM
- GI50 (SN12C renal): 2 µM
- TGI (SN12C renal): 5.79 µM
- GI50 (A498 renal): 14.3 µM
- TGI (A498 renal): 28.1 µM
- GI50 (786-0 renal): 1.7 µM
- TGI (786-0 renal): 3.42 µM
- GI50 (RXF 393 renal): 1.41 µM
- TGI (RXF 393 renal): 2.74 µM
- GI50 (NCI-H226 lung): 1.8 µM
- TGI (NCI-H226 lung): 4.58 µM
- GI50 (OVCAR-5 ovarian): 1.78 µM
- TGI (OVCAR-5 ovarian): 3.69 µM
- GI50 (DU-145 prostate): 1.85 µM
- TGI (DU-145 prostate): 3.55 µM
- GI50 (SK-OV-3 ovarian): 14.3 µM
- TGI (SK-OV-3 ovarian): 27.7 µM
- GI50 (HT29 colon): 3.66 µM
- TGI (HT29 colon): 19.2 µM
- GI50 (SF-539 CNS): 1.76 µM
- TGI (SF-539 CNS): 3.25 µM
- GI50 (T-47D breast): 1.55 µM
- TGI (T-47D breast): 4.26 µM
- GI50 (HOP-62 NSCLC): 4.66 µM
- TGI (HOP-62 NSCLC): 19.7 µM
- GI50 (NCI/ADR-RES ovarian): 2.06 µM
- TGI (NCI/ADR-RES ovarian): 6.79 µM
- GI50 (MDA-MB-231 breast): 1.68 µM
- TGI (MDA-MB-231 breast): 4.13 µM
- GI50 (SNB-75 CNS): 2.15 µM
- TGI (SNB-75 CNS): 6.48 µM
- GI50 (RPMI-8226 leukemia): 1.63 µM
- TGI (RPMI-8226 leukemia): 4.4 µM
- GI50 (MALME-3M melanoma): 2.3 µM
- TGI (MALME-3M melanoma): 4.42 µM
- GI50 (SK-MEL-2 melanoma): 2.88 µM
- TGI (SK-MEL-2 melanoma): 9.57 µM
- GI50 (SK-MEL-5 melanoma): 1.65 µM
- TGI (SK-MEL-5 melanoma): 3.08 µM
